In PMC12299463, “Cladolosides of Groups S and T: Triterpene Glycosides from the Sea Cucumber Cladolabes schmeltzii with Unique Sulfation; Human Breast Cancer Cytotoxicity and QSAR” (Marine Drugs, 2025):
“And” between values parts separate entries of the source, which are not always exact repeats. Identical values can stand only once. Counter-ions that a name gives are not always drawn. Like-named read-outs stand apart in the source and are kept apart here.

Legend:
human erythrocytes = assay: Hemolytic activity against human erythrocytes; type: cell-based; conditions: for ED50, Erythrocytes (hemolytic activity): 1 h at 37 °C
Procedure: A total of 450 g of human blood (B(III) Rh+) was used to obtain erythrocytes by centrifuging three times for 5 min with phosphate-buffered saline (PBS) (pH 7.4) at 4 °C on a centrifuge LABOFUGE 400R (Heraeus, Hanau, Germany). Ice-cold PBS (pH 7.4) was used for resuspension of erythrocyte residue to a final optical density of 1.5 at 700 nm. Then, 20 µL of tested compound solutions or control (cucumarioside A0-1 [15]) were added to 180 µL of erythrocyte suspension in V-bottom 96-well plates and incubated for 1 h at 37 °C. After centrifugation (900 g, 10 min, laboratory centrifuge LMC-3000 (Biosan, Riga, Latvia)), 100 µL of supernatant was transferred into new flat plates. The values of erythrocyte lysis were measured on microplate photometer Multiskan FC (Thermo Fisher Scientific, Waltham, MA, USA) at λ = 570 nm as hemoglobin concentration in supernatant. […] All the experiments were carried out in triple repetitions, p < 0.05.

[1] = system: MCF-10A non-tumor mammary epithelial cell line; assay: in vitro; type: cell-based, human
[2] = system: MCF-7 human breast cancer cells; assay: cells; type: cell-based; conditions: for Selectivity Index (SI), MCF-7: ratio of IC50 for healthy (MCF-10A) and MCF-7 cells;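 on all read-outs here: IC50 values, including those behind the selectivity ratio, derive from formazan absorbance at 570 nm, tested in triplicate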
[3] = system: T-47D human breast cancer cells; assay: cells; type: cell-based; conditions: for Selectivity Index (SI), T-47D: ratio of IC50 for healthy (MCF-10A) and T-47D cells;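 on all read-outs here: cell viability read as absorbance of formazan dye at 570 nm, each experiment run in triplicate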
[4] = system: MDA-MB-231 triple-negative breast cancer cells; assay: cells; type: cell-based, human; conditions: for Selectivity Index (SI), MDA-MB-231: ratio of IC50 for healthy (MCF-10A) and MDA-MB-231 cells
[5] = MTT assay, MCF-10A, read-out: Cytotoxicity, IC50, MCF-10A
[6] = MTT assay, MCF-7, read-out: Cytotoxicity, IC50, MCF-7
[7] = MTT assay, T-47D, read-out: Cytotoxicity, IC50, T-47D
[8] = MTT assay, MDA-MB-231, read-out: Cytotoxicity, IC50, MDA-MB-231

Molecule	ED50, Erythrocytes (hemolytic activity) (human erythrocytes)	IC50 [1, 5]	IC50 [2, 6]	IC50 [3, 7]	Selectivity Index (SI), T-47D [3]	IC50 [4, 8]	Selectivity Index (SI), MDA-MB-231 [4]	Hemolytic (membranolytic) activity, in words (human erythrocytes)	Selectivity Index (SI), MCF-7 [2]	other results
C=C(C)CCC[C@]1(C)OC(=O)C23CC=C4[C@@H](CC[C@H]5C(C)(C)[C@@H](O[C@@H]6OC[C@@H](O[C@@H]7O[C@H](CO)[C@@H](O)[C@H](O[C@@H]8O[C@H](CO)[C@@H](O)[C@H](OC)[C@H]8O)[C@H]7O)[C@H](O)[C@H]6O[C@@H]6O[C@H](C)[C@@H](O[C@@H]7O[C@H](CO)[C@@H](O)[C@H](O[C@@H]8O[C@H](CO)[C@@H](O)[C@H](OC)[C@H]8O)[C@H]7O)[C@H](O)[C@H]6O)CC[C@]45C)[C@]2(C)CC(=O)[C@@H]31 (some centres unmarked) [Cladoloside M1 (35), cladoloside M1]	0.08 ± 0.01 µM	9.81 ± 0.86 µM	> 20 µM	17.1 ± 1.52 µM	0.57	5.05 ± 0.38 µM	1.94			Hemolytic (membranolytic) activity, in words (human erythrocytes; listed as M1 (35)): strong hemolytics; Hemolytic (membranolytic) activity, in words (human erythrocytes; listed as cladoloside M1 (35)): most active compound
C=C(C)CC[C@@H](OC(C)=O)[C@]1(C)OC(=O)C23CC=C4[C@@H](CC[C@H]5C(C)(C)[C@@H](O[C@@H]6OC[C@@H](O[C@@H]7O[C@H](CO)[C@@H](O)[C@H](O)[C@H]7O)[C@H](O)[C@H]6O[C@@H]6O[C@H](C)[C@@H](O[C@@H]7OC[C@@H](O)[C@H](O[C@@H]8O[C@H](CO)[C@@H](O)[C@H](OC)[C@H]8O)[C@H]7O)[C@H](O)[C@H]6O)CC[C@]45C)[C@]2(C)C[C@H](OC(C)=O)[C@@H]31 (some centres unmarked) [Cladoloside B2 (12), cladoloside B2]		12.2 ± 1.2 µM	14.5 ± 0.48 µM	12.5 ± 0.96 µM	0.98	3.92 ± 0.35 µM	3.12	high activity	0.84	ED50, Erythrocytes (hemolytic activity) (human erythrocytes; listed as B2 (12)): 0.31 ± 0.02 µM; ED50, Erythrocytes (hemolytic activity) (human erythrocytes; listed as cladoloside B2 (12)): 0.31 µM
C=C(C)CC[C@@H](O)[C@]1(C)OC(=O)C23CC=C4[C@@H](CC[C@H]5C(C)(C)[C@@H](O[C@@H]6OC[C@@H](O[C@@H]7O[C@H](CO)[C@@H](O)[C@H](O[C@@H]8O[C@H](CO)[C@@H](O)[C@H](OC)[C@H]8O)[C@H]7O)[C@H](O)[C@H]6O[C@@H]6O[C@H](C)[C@@H](O[C@@H]7OC[C@@H](O)[C@H](O[C@@H]8O[C@H](COS(=O)(=O)[O-])[C@@H](O)[C@H](OC)[C@H]8O)[C@H]7O)[C@H](O)[C@H]6O)CC[C@]45C)[C@]2(C)C[C@H](OC(C)=O)[C@@H]31.[Na+] (some centres unmarked) [Cladoloside K2 (32), cladoloside K2]		14.5 ± 1.07 µM	> 20 µM	14.1 ± 0.91 µM	1.03	6.81 ± 0.73 µM				ED50, Erythrocytes (hemolytic activity) (human erythrocytes; listed as K2 (32)): 4.63 ± 0.41 µM; ED50, Erythrocytes (hemolytic activity) (human erythrocytes; listed as cladoloside K2 (32)): 4.63 µM
CO[C@@H]1[C@@H](O)[C@H](O[C@@H]2[C@@H](O)[C@H](O[C@@H]3CO[C@@H](O[C@H]4CC[C@]5(C)C6=CCC78C(=O)O[C@@](C)([C@@H](CCC(C)C)OC(C)=O)[C@H]7[C@@H](OC(C)=O)C[C@@]8(C)[C@@H]6CC[C@H]5C4(C)C)[C@H](O[C@@H]4O[C@H](C)[C@@H](O[C@@H]5OC[C@@H](O)[C@H](O[C@@H]6O[C@H](CO)[C@@H](O)[C@H](OS(=O)(=O)O)[C@H]6O)[C@H]5O)[C@H](O)[C@H]4O)[C@H]3O)O[C@H](CO)[C@H]2O)O[C@H](CO)[C@H]1O (stereo partly drawn) [Cladoloside T1 (4), 3β-O-{3-O-sodium sulfate-β-D-glucopyranosyl-(1→3)-β-D-xylopyranosyl-(1→4)-β-D-quinovopyranosyl-(1→2)-[3-O-methyl-β-D-glucopyranosyl-(1→3)-β-D-glucopyranosyl-(1→4)]-β-D-xylopyranosyl}-16S,22R-diacetoxyholost-9-en]	0.12 µM and 0.12 ± 0.02 µM									IC50 [1]: 8.41 ± 0.4 µM; IC50 [2]: 7.78 ± 0.62 µM; IC50 [3]: 7.41 ± 0.69 µM; IC50 [4]: 2.94 ± 0.21 µM
C=C(C)CCC[C@]1(C)OC(=O)C23CC=C4[C@@H](CC[C@H]5C(C)(C)[C@@H](O[C@@H]6OC[C@@H](O[C@@H]7O[C@H](CO)[C@@H](O)[C@H](O[C@@H]8O[C@H](CO)[C@@H](O)[C@H](OC)[C@H]8O)[C@H]7O)[C@H](O)[C@H]6O[C@@H]6O[C@H](C)[C@@H](O[C@@H]7OC[C@@H](O)[C@H](O[C@@H]8O[C@H](CO)[C@@H](O)[C@H](O)[C@H]8O)[C@H]7O)[C@H](O)[C@H]6O)CC[C@]45C)[C@]2(C)CC(=O)[C@@H]31 (some centres unmarked) [Cladoloside P2 (41), Cladoloside P2]	0.17 ± 0.02 µM	11.1 ± 0.74 µM	16.3 ± 1.03 µM	10.6 ± 0.61 µM	1.05	6.92 ± 0.44 µM	1.60	strong hemolytics	0.68	
CO[C@@H]1[C@@H](O)[C@H](O[C@@H]2[C@@H](O)[C@H](O[C@H]3[C@H](O)[C@@H](O)[C@H](O[C@H]4[C@H](O[C@H]5CC[C@]6(C)C7=CCC89C(=O)O[C@@](C)([C@@H](CCC(C)C)OC(C)=O)[C@H]8[C@@H](OC(C)=O)C[C@@]9(C)[C@@H]7CC[C@H]6C5(C)C)OC[C@@H](O[C@@H]5O[C@H](CO)[C@@H](O)[C@H](O)[C@H]5O)[C@@H]4O)O[C@@H]3C)OC[C@H]2O)O[C@H](COS(=O)(=O)[O-])[C@H]1O.[Na+] (some centres unmarked) [Cladoloside I1 (28), cladoloside I1]		13.4 ± 0.92 µM	11.2 ± 1.02 µM	9.91 ± 0.68 µM	1.36	3.02 ± 0.28 µM	4.45		1.20	ED50, Erythrocytes (hemolytic activity) (human erythrocytes; listed as I1 (28)): 1.72 ± 0.10 µM; ED50, Erythrocytes (hemolytic activity) (human erythrocytes; listed as cladoloside I1 (28)): 1.72 µM
C=C(C)CC[C@@H](OC(C)=O)[C@]1(C)OC(=O)C23CC=C4[C@@H](CC[C@H]5C(C)(C)[C@@H](O[C@@H]6OC[C@@H](O)[C@H](O)[C@H]6O[C@@H]6O[C@H](C)[C@@H](O[C@@H]7O[C@H](CO)[C@@H](O)[C@H](O[C@@H]8O[C@H](CO)[C@@H](O)[C@H](OC)[C@H]8O)[C@H]7O)[C@H](O)[C@H]6O)CC[C@]45C)[C@]2(C)C[C@H](OC(C)=O)[C@@H]31 (some centres unmarked) [A6 (10), cladoloside A6]	3.43 ± 0.22 µM	> 20 µM	> 20 µM	> 20 µM		> 20 µM				
C=C(C)CC[C@@H](OC(C)=O)[C@]1(C)OC(=O)C23CC=C4[C@@H](CC[C@H]5C(C)(C)[C@@H](O[C@@H]6OC[C@@H](O[C@@H]7O[C@H](CO)[C@@H](O)[C@H](O[C@@H]8O[C@H](CO)[C@@H](O)[C@H](OC)[C@H]8O)[C@H]7O)[C@H](O)[C@H]6O[C@@H]6O[C@H](C)[C@@H](O[C@@H]7OC[C@@H](O)[C@H](O[C@@H]8O[C@H](CO)[C@@H](O)[C@H](OC)[C@H]8O)[C@H]7O)[C@H](O)[C@H]6O)CC[C@]45C)[C@]2(C)C[C@H](O)[C@@H]31 (some centres unmarked) [C3 (16), cladoloside C3]	12.10 ± 0.58 µM									ED50, Erythrocytes (hemolytic activity) (human erythrocytes; listed as cladoloside C3 (16)): 12.10 µM; IC50 [1]: > 20 µM; IC50 [2]: > 20 µM; IC50 [3]: > 20 µM; IC50 [4]: > 20 µM
cladoloside C [Cladoloside C (13)]		> 20 µM	> 20 µM	12.4 ± 0.66 µM	>1.61	13 ± 0.8 µM	>1.54	high activity		ED50, Erythrocytes (hemolytic activity) (human erythrocytes; listed as C (13)): 0.44 ± 0.05 µM; ED50, Erythrocytes (hemolytic activity) (human erythrocytes; listed as cladoloside C (13)): 0.44 µM
C=C(C)CC[C@@H](OC(C)=O)[C@]1(C)OC(=O)C23CC=C4[C@@H](CC[C@H]5C(C)(C)[C@@H](O[C@@H]6OC[C@@H](O[C@@H]7OC[C@@H](O)[C@H](O[C@@H]8O[C@H](CO)[C@@H](O)[C@H](OC)[C@H]8O)[C@H]7O)[C@H](O)[C@H]6O[C@@H]6O[C@H](C)[C@@H](O[C@@H]7OC[C@@H](O)[C@H](O[C@@H]8O[C@H](CO)[C@@H](O)[C@H](OC)[C@H]8O)[C@H]7O)[C@H](O)[C@H]6O)CC[C@]45C)[C@]2(C)C[C@H](OC(C)=O)[C@@H]31 (some centres unmarked) [Cladoloside G (25), cladoloside G]		> 20 µM	> 20 µM	> 20 µM		3.95 ± 0.38 µM	>5.06	high activity		ED50, Erythrocytes (hemolytic activity) (human erythrocytes; listed as G (25)): 0.35 ± 0.04 µM; ED50, Erythrocytes (hemolytic activity) (human erythrocytes; listed as cladoloside G (25)): 0.35 µM
